Values after ≈ are worked out from the molar mass of the structure shown. Read-outs that look alike come from different tables or passages of the source. No end group written: not given here.
Legend:
[1] = tested on: Salmonella choleraesuis Strand 74
Protocol: (§3) The minimal inhibitory concentration (MIC) and minimal bactericidal concentration (MBC) were obtained to determine bacteriostatic and bactericidal activities, respectively, for each strain of the bacteria listed above. […] The lowest concentration which inhibited bacterial growth was deemed the MIC. The MBC was determined by spreading 100 μl from each tube of the MIC on an LB or TSA plate and incubating overnight.

[2] = tested on: Salmonella choleraesuis Strand 75
Protocol: as §3

E. coli [3] = assay: microbe, parasite or virus in culture
Protocol: (§1) Monodoncin was tested for its antibacterial activities against various Gram (−) bacteria, including E. coli, Vibrio harveyi, Vibrio alginolyticus, and Salmonella cholesaesuis, various Gram (+) bacteria, such as Aerococcus viridian, and filamentous fungi, such as Fusarium pisi.
(§2) The bacteria were cultured under conventional methods. For example, E. coli strain was cultured in LB, 37° C. The marine microorganisms that are pathogenic for shrimp, such as Vibrio harveyi and Vibrio alginolyticus, were cultured in trypticase soy broth/agar (1.5% NaCl), 25° C.

Vibrio alginolyticus = assay: microbe, parasite or virus in culture
Protocol: as §1, §2

Vibrio harveyi [4] = assay: microbe, parasite or virus in culture
Protocol: as §1, §2

Aerococcus viridian = assay: Bacteriostatic (MIC) and bactericidal (MBC) analysis against Aerococcus viridian; assay type: cell-based
Protocol: as §1

Fusarium pisi = assay: MIC and MBC analysis against the filamentous fungus Fusarium pisi; assay type: cell-based
Protocol: as §1

Fusarium oxysporum = assay: MIC and MBC analysis against the filamentous fungus Fusarium oxysporum; assay type: cell-based
Vibrio harveyi [5] = assay: Mortality of tiger shrimp after Vibrio harveyi challenge (FIG. 5); assay type: in vivo, Penaeus monodon
Protocol: (-⋄-): PBS control (negative control); (-▪-): Vibrio harveyi challenge (positive control); (-▴-): cecropin+Vibrio harveyi (non-monodoncin treatment group); (-●-): monodoncin+Vibrio harveyi (monodoncin treatment group).
Vibrio harveyi is a gram-negative marine bacterium that is in the natural living environment of the tiger shrimp. A suspension of the microorganism […] containing 10^5 cells was used for each tiger shrimp. The suspension was injected into the shrimp abdominal muscle. Hemocytes were collected as Example 1 at different times (from 0 to 72 hours) post-injection. Unchallenged animals were used as controls.

E. coli [6] = assay: SEM analysis of interaction of monodoncin with E. coli; assay type: cell-based, Escherichia coli; details: monodoncin 10 μM, 12 hrs of treatment
Protocol: Monodoncin at […] was used to treat E. Coli and Vibrios, and the pathogens prior to and after the treatment were monitored under Scanning Electron Microscope (SEM) and Atomic Force Microscope (AFM).
Scanning electron microscopy (SEM) was conducted by incubating […] of E. coli (109 C.F.U./ml) with or without 50 μl monodoncin (10000 μM) at 37° C. for 1 h, 3 h, 6 h, and 12 h. Three milliliters of each of the bacterial suspensions (at various time frames) were fixed by adding 1 ml of 6% glutaraldehyde in 0.1 M sodium cacodylate trihydrate buffer (pH 6.8). After fixation for 1 h at […], the bacterial suspensions were pelleted, the used fixative was removed, 2 ml of the new fixative were added, and the bacteria were incubated for 5 min at […] Two additional 5-min fixations were conducted, followed by addition of 2 ml of 1% osmium tetroxide in 0.1 M cacodylate buffer, and the fixation was allowed to proceed for 30 min at […] The osmium tetroxide was removed, and the bacterial suspensions were washed in 2 ml of 0.1 M cacodylate buffer. […] The SEM mounts were then sputter coated with gold (Edwards S150A sputter coater; Edwards High Vacuum, Crawley, West Sussex, England) and analyzed on a Hitachi H300-3010 scanning image accessory electron microscope.

## CC1(C)S[C@@H]2[C@H](NC(=O)[C@H](N)c3ccc(O)cc3)C(=O)N2[C@H]1C(=O)O [Amoxicillin, amoxicillin]
[1]; Strand 74, amoxicillin alone
  MIC: >64 µg
[2]; Strand 75, amoxicillin alone
  MIC: >64 µg

## CN(C)[C@@H]1C(O)=C(C(N)=O)C(=O)[C@@]2(O)C(O)=C3C(=O)c4c(O)cccc4[C@@](C)(O)[C@H]3C[C@@H]12 [Tetracycline, tetracycline]
E. coli [3]; Escherichia coli
  MBC: 403 µM (≈ 179 µg/mL)
Vibrio alginolyticus; Vibrio alginolyticus
  MBC: > 202 µM
  MIC: 25.2 µM (≈ 11.2 µg/mL)
Vibrio harveyi [4]; Vibrio harveyi
  MBC: 403 µM (≈ 179 µg/mL)
  MIC: 6.3 µM (≈ 2.8 µg/mL)
Aerococcus viridian
  MBC: 300 µM (≈ 133 µg/mL)
  MIC: 30 µM (≈ 13.3 µg/mL)
Fusarium pisi; Fusarium vanettenii
  MBC: > 500 µM
  MIC: 300 µM (≈ 133 µg/mL)
Fusarium oxysporum
  MBC: 500 µM (≈ 222 µg/mL)
  MIC: 500 µM (≈ 222 µg/mL)

## Cecropin
[1]; Strand 74, peptide alone
  MBC: 31.2 µg/mL
  MIC: 16.5 µg/mL
[2]; Strand 75, peptide alone
  MBC: >31.2 µg/mL
  MIC: 31.2 µg/mL

## GWGSFFKKAAHVGKHVGKAALTHYL-NH2 (C-terminus assumed) [Pleurocidin, pleurocidin]
E. coli [3]
  MBC: 500 µM
  MIC: 450 µM
Vibrio alginolyticus
  MBC: >500 µM
  MIC: 500 µM
Vibrio harveyi [4]
  MBC: 200 µM
  MIC: 200 µM

## QGYQGGYTRPFPRPPYGGGYHPVPVCTSCHRLSPLQARACCRQLGRCCDAKQTYG (cysteines drawn unpaired) [Monodoncin]
Vibrio harveyi [5]
  mortality rate relative to that in the untreated group: 40%
  reduction of tiger shrimp mortality: at least 40%
E. coli [6]
  number of bacteria in the culture: significantly reduced

## magainins
E. coli [3]; E. coli
  MBC: 70 µM
  MIC: 40 µM
Vibrio alginolyticus; Vibrio alginolyticus
  MBC: 300 µM
  MIC: 150 µM
Vibrio harveyi [4]; Vibrio harveyi
  MBC: 30 µM
  MIC: 30 µM
Aerococcus viridian
  MBC: 5 µM
  MIC: 1 µM
Fusarium pisi
  MBC: 1 µM
  MIC: 1 µM
Fusarium oxysporum
  MBC: 1 µM
  MIC: 1 µM
